Assay results from paper PMC10078976 (Nature chemistry, 2022).

How the values were obtained:
[1] = lasso peptides, aspartimide hydrolysis; cited from earlier work
[2] = biological target: doubly dehydrated C62A ThfA (Thermobifida fusca); experiment: BLI
[3] = biological target: unmodified C62A ThfA (Thermobifida fusca); experiment: BLI

Molecule | regioselectivity of aspartimide opening [1] | Kd [2] | Kd [3]
cellulonodin-2 | open exclusively to the Asp backbone form |  | 
lihuanodin | open exclusively to the Asp backbone form |  | 
maltose binding protein (MBP) fusion to ThfB (enzyme, modifications not checked) MSQAEYEFAATEARRGFGGIINSLTGWINHPSAIGRAEYKPYQLHHAVQAGLNVPRTLITNDPKQAKGWCARVGDVVYKPLSAPSWLENGDTYVVFTTPITPDQWGDPAIGRTAHMFQQRLDKEFEVRLTMVDGKAFPAAIHAHSDAARIDWRSDYDALTYSIPTVPQRVLTGARDLLRRLHLRYAALDFIVSPDGRWHFLEVNPNGQYGWIEEHTGQPISDAIADALTRKEN |  | 18 nM | 28 nM
